Experimental data as given in US20260305610A1, “TRIAZOLE COMPOUND, AND PREPARATION METHOD THEREFOR, HERBICIDAL COMPOSITION AND USE THEREOF” (QINGDAO KINGAGROOT CHEMICAL COMPOUND CO., LTD., priority 2023, published 2026).

Columns and labels:
major crops = assay: Pre-emergence test experiment (crops); type: in vivo; design: key: 9: completely dead; 8: growth control rate is greater than or equal to 90% and less than 100%; 7: growth control rate is greater than or equal to 80% and less than 90%; 6: growth control rate is greater than or equal to 70% and less than 80%; growth control rate is greater than or equal to 50% and less than 70%; 4: growth control rate is greater than or equal to 30% and less than 50%; growth control rate is greater than or equal to 20% and less than 30%; growth control rate is greater than or equal to 10% and less than 20%; growth control rate is less than 10%; 0: no effect; conditions: 30 g a.i./ha
[1] = system: monocotyledonous and dicotyledonous weeds; assay: Pre-emergence test experiment (weeds); type: in vivo; design: key: 9: completely dead; 8: growth control rate is greater than or equal to 90% and less than 100%; 7: growth control rate is greater than or equal to 80% and less than 90%; 6: growth control rate is greater than or equal to 70% and less than 80%; growth control rate is greater than or equal to 50% and less than 70%; 4: growth control rate is greater than or equal to 30% and less than 50%; growth control rate is greater than or equal to 20% and less than 30%; growth control rate is greater than or equal to 10% and less than 20%; growth control rate is less than 10%; 0: no effect; conditions: 30 g a.i./ha

Structure (SMILES)	Pre-emergence plant damage level (growth control rate) on Corn (major crops)	Pre-emergence plant damage level (growth control rate) on Cotton (major crops)	Pre-emergence plant damage level (growth control rate) on Soybean (major crops)	Pre-emergence activity level (growth control rate) on Amaranthus retroflexus [1]	Pre-emergence activity level (growth control rate) on Descurainia sophia [1]	Pre-emergence activity level (growth control rate) on Digitaria sanguinalis [1]	Pre-emergence activity level (growth control rate) on Setaria viridis [1]	Pre-emergence activity level (growth control rate) on Solanum nigrum [1]	Pre-emergence activity level (growth control rate) on Veronica [1]
Cc1cc(Oc2cccc(C(F)(F)F)c2)nc(-n2cnc(C(F)(F)F)n2)c1 [Compound 5]	0	0	0	9	9	9	9	9	9
COCc1cc(Oc2cccc(C(F)(F)F)c2)nc(-n2cnc(C(F)(F)F)n2)c1 [Compound 68]	0	0	0	9	8 (growth control rate is greater than or equal to 90% and less than 100%)	7 (growth control rate is greater than or equal to 80% and less than 90%)	8 (growth control rate is greater than or equal to 90% and less than 100%)	7 (growth control rate is greater than or equal to 80% and less than 90%)	8 (growth control rate is greater than or equal to 90% and less than 100%)
CCc1ccc(-n2cnc(C(F)F)n2)nc1Oc1cccc(OC(F)(F)F)c1 [Compound 73]	0	0	0	9	9	8 (growth control rate is greater than or equal to 90% and less than 100%)	8 (growth control rate is greater than or equal to 90% and less than 100%)	9	9
CCc1ccc(-n2cnc(C(F)(F)F)n2)nc1Oc1cccc(C(F)F)c1 [Compound 137]	0	0	0	9	9	8 (growth control rate is greater than or equal to 90% and less than 100%)	9	9	9
COCc1ccc(-n2cnc(C(F)(F)F)n2)nc1Oc1cccc(C(F)F)c1 [Compound 144]	0	0	0	9	9	8 (growth control rate is greater than or equal to 90% and less than 100%)	9	9	9
CCc1ccc(-n2cnc(C(F)(F)F)n2)nc1Oc1ccc(F)c(OC(F)F)c1 [Compound 132]	0	0	0	9	9	9	9	9	9
COCc1ccc(-n2cnc(C(F)(F)F)n2)nc1Oc1ccc(F)c(OC(F)(F)F)c1 [Compound 146]	0	0	0	9	9	8 (growth control rate is greater than or equal to 90% and less than 100%)	9	9	9
Cc1ccc(-n2cnc(C(F)(F)F)n2)nc1Oc1cccc(Cl)c1 [Compound 40]	0	0	0	9	9	7 (growth control rate is greater than or equal to 80% and less than 90%)	7 (growth control rate is greater than or equal to 80% and less than 90%)	7 (growth control rate is greater than or equal to 80% and less than 90%)	9
Cc1cc(Oc2cncc(C(F)(F)F)c2)nc(-n2cnc(C(F)(F)F)n2)c1 [Compound 6]	0	0	0	9	9	9	9	9	9
COCc1ccc(-n2cnc(C(F)(F)C(F)(F)F)n2)nc1Oc1cncc(C(F)(F)F)c1 [Compound 140]	0	0	0		9	8 (growth control rate is greater than or equal to 90% and less than 100%)	9	9	9
Cc1ccc(-n2cnc(C(F)(F)F)n2)nc1Oc1cccc(OC(F)F)c1 [Compound 43]	0	0	0	9	9	9	8 (growth control rate is greater than or equal to 90% and less than 100%)	7 (growth control rate is greater than or equal to 80% and less than 90%)	9
Cc1ccc(-n2cnc(C(F)(F)F)n2)nc1Oc1cccc(C(F)F)c1 [Compound 12]	0	0	0	9	9	9	9	9	9
Cc1ccc(-n2cnc(C(C)(F)F)n2)nc1Oc1cccc(C(F)(F)F)c1 [Compound 13]	0	0	0	9	9	8 (growth control rate is greater than or equal to 90% and less than 100%)	7 (growth control rate is greater than or equal to 80% and less than 90%)		9
Cc1ccc(-n2cnc(C(F)F)n2)nc1Oc1cccc(OC(F)(F)F)c1 [Compound 83]	0	0	0	9	9	9	9	9	9
